Marks after values point to notes of the source that are not given here.
How the values were obtained:
[1] = Residual lipid levels in rat liver and spleen (UPLC-MS); format: in vivo; conditions: for % Lipid Remaining in liver, 48 h: assuming 300 g rat and 15 g liver; for % remaining dose in liver, 48 h: 2.0 mpk
Outline: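 Rats received a single intravenous dose of lipid nanoparticle composition, and liver tissue was later collected to quantify residual lipid. Weighed tissue was homogenized in Milli-Q water (900 μL per 100 mg tissue) using an Omni probe homogenizer. 50 μL aliquots were mixed with 400 μL spiking solution, vortexed, centrifuged, and analyzed by UPLC on a C8 column with positive-mode ESI detection on a Sciex API5500 mass spectrometer.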

[2] = Lipid clearance: lipid level in mouse liver tissue (LC-MS/MS); format: in vivo; conditions: for % dose remaining Mouse liver tissue, 24 h: CD-1 mouse liver 24 h after 0.5 mg/kg bolus dose mRNA, n = 5 ± S.D.; for % Dose Remaining in Liver 6 h: Table 3D; for original dose remaining in liver tissue 24 hours post dose: mice
Experimental: Quantification of Lipid by LC-MS/MS: Liver samples were homogenized following addition of 19 eq. (w/v) of water (DF=20). Protein was precipitated and analyzed against calibration standards prepared in matching blank. Chromatographic separation and quantification was accomplished with a LC-MS/MS System. Samples were injected and separated via HPLC A triple-quadrupole MS/MS system operated in positive ion mode was used for signal detection.

hEPO mRNA [3] = experiment: hEPO expression after intravenous administration to rats; format: in vivo, rat; conditions: for Lipid/MC3 hEPO expression: 6 hours after administration; for Lipid/MC3 hEPO conc. ratio 0.2 mpk / Lipid/MC3 hEPO conc. ratio 2 mpk: rats
Outline: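 Rats dosed intravenously once with nanoparticle composition, 0.2 or 2.0 mpk, formulated by the standard MC3 method. Tail-vein blood sampled at 6 h or at time points from 0.25 to 48 h. hEPO measured by ELISA.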

hEPO mRNA [4] = experiment: hEPO expression after subcutaneous administration to mice; format: in vivo, female CD-1 mice; conditions: for Novel lipid/MC3 expression ratio, 6 hr. time point, s.c. hEPO 0.5 mpk: relative to MC3
Experimental: The effect of the lipids of the disclosure on protein expression upon subcutaneous administration was studied. Formulations containing lipids of the disclosure and an mRNA expressing luciferase or hEPO were administered subcutaneously to female CD-1 mice at 0.5 mpk. Expression levels were obtained via whole body luminescent imaging (BLI) at 3, 6 and 24 hours after injection and expression levels in liver, spleen and at the injection site were evaluated ex vivo after 24 hours. […] See also Tables 35 and 36, and FIGS. 19 and 27.
Table 36 summarizes the hEPO expression levels using various nanoparticle compositions of the disclosure as compared to the hEPO expression level using a formulation containing MC3 or Compound 18, following subcutaneous administration, as described above.

[5] = Chemical stability of lipids in ethanol (lipid purity); format: physicochemical
Experimental: Ester linkages were previously reported to trigger metabolism by esterases in vivo. (See Fukami, T. et al. Drug Metab. Pharmacokinet. 2012, 27, 466-477, the content of which is incorporated by reference herein in its entirety). […] (See Maier M. A., Mol. Ther. 2013, 21, 1570-1578, the content of which is incorporated herein in its entirety) First, the chemical stability of the lipids was evaluated by measuring ethanol stability at room temperature and 37° C. (Table 39). […] LNPs formed with compound 138 were larger, with a surface pKa>7. […] Removal of one ester function (compound 136) afforded LNPs with improved physiochemical characteristics and lower LNP surface pKa.

[6] = rat, intravenous, 0.2 mpk, 48 hours, Table 19A
[7] = rat, intravenous, 2 mpk, 48 hours, Table 19A
[8] = rat, intravenous, 0.2 mpk, 6 hours
[9] = rat, intravenous, 2 mpk, 6 hours

In the case of `CCCCC/C=C\C/C=C\CCCCCCCCC(CCCCCCCC/C=C\C/C=C\CCCCC)OC(=O)CCCN(C)C` [MC3, DLin-MC3-DMA, reference compound], the “% dose remaining Rat liver tissue, 48 h” value ([1]; Sprague Dawley rat liver 48 h after 2 mg/kg bolus dose mRNA) is reported as 61^e %, the “% dose remaining, liver, 24 h” value ([1]; Table 19B, liver, 24 h) is reported as 44% and the “% lipid remaining in liver after 48 hours” value ([1]; liver, 48 hours) is reported as 87%. It also gave a Liver level [1, 6] of 11300 ng/g, a Spleen level [1, 6] of 0.74 ng/g and a Liver level [1, 7] of 140520 ng/g. It also gave a Spleen level [1, 7] of 0.65 ng/g, a Liver level ([1]; rats, 0.2 mpk, after 48 h) of 25033 ng/g and a Spleen level ([1]; rats, 0.2 mpk, after 48 h) of 9440 ng/g. For the same compound, the “% Lipid Remaining in liver, 48 h” value ([1]; rats, 2 mpk) was 87%, the Liver level ([1]; rats, 2 mpk, after 48 h) was 285333 ng/g and the Spleen level ([1]; rats, 2 mpk, after 48 h) was 129000 ng/g. For the same compound, the “lipid remained in the liver after 48 hours” value ([1]; rats, i.v., 0.2 mpk or 2.0 mpk) was “greater than 60%”, the “% remaining dose in liver, 48 h” value ([1]; rats, intravenous) was 74% and the “% dose remaining Mouse liver tissue, 24 h” value [2] was 71 ± 27%. For the same compound, the “% Dose Remaining in Liver 6 h” value ([2]; second column (head also says 6 h), intravenous) was 54%, the “% Dose Remaining in Liver 6 h” value ([2]; intravenous) was 80% and the “Mouse liver tissue level (ng/g) 6 h” value ([2]; Table 3E, intravenous, 6 h) was 85400 ng/g. The “Mouse liver tissue level (ng/g) 24 h” value ([2]; Table 3E, intravenous, 24 h) was 67433 ng/g, the “% Remaining dose at 6 h” value ([2]; Table 3E, mouse liver, 6 h) was greater than 98% and the “% Remaining dose at 24 h” value ([2]; Table 3E, mouse liver, 24 h) was 79.7%. For the same compound, the “Lipid/MC3 hEPO expression” value (hEPO mRNA [3]; 0.2 mpk dose to rat) was 1, the “Lipid/MC3 hEPO expression” value (hEPO mRNA [3]; 2 mpk dose to rat) was 1 and the “AUC (hEPO)” value (hEPO mRNA [3]; Table 19B) was 3.46e+07 pg·h/mL. For the same compound, the “[hEPO]” value (hEPO mRNA [3]; Table 19B, species, dose and time not given) was 14800 pg/mL, the “hEPO expression” value (hEPO mRNA [3]; rat, 6 h, 2 mpk, i.v.) was 1.33e+07 pg/mL and the “hEPO expression 0.25 h” value (hEPO mRNA [3]; rat, intravenous, 0.2 mpk, 0.25 h) was 0 pg/mL. The “hEPO expression 0.5 h” value (hEPO mRNA [3]; rat, intravenous, 0.2 mpk, 0.5 h) was 42457 pg/mL, the “hEPO expression 1 h” value (hEPO mRNA [3]; rat, intravenous, 0.2 mpk, 1 h) was 93720 pg/mL and the “hEPO expression 2 h” value (hEPO mRNA [3]; rat, intravenous, 0.2 mpk, 2 h) was 524093 pg/mL. The “hEPO expression 4 h” value (hEPO mRNA [3]; rat, intravenous, 0.2 mpk, 4 h) was 601307 pg/mL, the hEPO expression (hEPO mRNA [3]; [8]) was 7.68e+06 pg/mL and the “hEPO expression 8 h” value (hEPO mRNA [3]; rat, intravenous, 0.2 mpk, 8 h) was 1536833 pg/mL. The “hEPO expression 24 h” value (hEPO mRNA [3]; rat, intravenous, 0.2 mpk, 24 h) was 703619 pg/mL, the “hEPO expression 48 h” value (hEPO mRNA [3]; rat, intravenous, 0.2 mpk, 48 h) was 64687 pg/mL and the hEPO expression (hEPO mRNA [3]; [9]) was 9.29e+06 pg/mL. The “Lipid/MC3 hEPO conc. ratio 0.2 mpk” value (hEPO mRNA [3]; intravenous, 0.2 mpk, 6 hours) was 1 and the “Lipid/MC3 hEPO conc. ratio 2 mpk” value (hEPO mRNA [3]; intravenous, 2 mpk, 6 hours) was 1.
In the case of `CCCC/C=C\CCC(CC/C=C\CCCC)OC(=O)CCCCCCCN(CCO)CCCCCCCC(=O)OCCCCCCCCC` [Compound 60, (5Z,12Z)-Heptadeca-5,12-dien-9-yl 8-((2-hydroxyethyl)(8-(nonyloxy)-8-oxooctyl)amino)octanoate], the “Novel lipid/MC3 expression ratio, 6 hr. time point, s.c. hEPO 0.5 mpk” value (shortened to “Novel lipid/MC3 expression ratio”) (hEPO mRNA [4]) is reported as 6.59.
In the case of `CCCCCCCCCOC(=O)CCCCCCCN(CCO)CCCCCCCC(=O)OCCCCCCCCC` [Compound 138, Dinonyl 8,8′-((2-hydroxyethyl)azanediyl)dioctanoate], the “% dose remaining Mouse liver tissue, 24 h” value [2] is reported as 0%, the “original dose remaining in liver tissue 24 hours post dose” value (“original dose remaining” below) ([2]; intravenous) is reported as “no lipid detected” and the “Lipid Purity” value ([5]; t = 0) is reported as 97.59%. The “Lipid Purity” value ([5]; t = 96 h, 25° C.) was 98.64% and the “Lipid Purity” value ([5]; t = 96 h, 37° C.) was 97.82%.
With `CCCCCCCCCOC(=O)CCCCCCCN(CCCCCCCC(=O)OC(CCCCCCCC)CCCCCCCC)CCCNC(=S)N(C)C` [Compound 111, Heptadecan-9-yl 8-((3-(3,3-dimethylthioureido)propyl)(8-(nonyloxy)-8-oxooctyl)amino)octanoate] the “Novel lipid/MC3 expression ratio” value (hEPO mRNA [4]) was 6.40.
For `CCCCCCCCC(CCCCCCCC)OC(=O)CCCCCCCN(CCO)CCCCCCCC(=O)OC(CCCCCCCC)CCCCCCCC` [Compound 29, Di(heptadecan-9-yl) 8,8′-((2-hydroxyethyl)azanediyl)dioctanoate], the “% dose remaining Mouse liver tissue, 24 h” value [2] was 68 ± 9.2%, the “original dose remaining” value ([2]; intravenous) was 68% and the “Lipid Purity” value ([5]; t = 0) was 97.017%. For the same compound, the “Lipid Purity” value ([5]; t = 96 h, 25° C.) was 97.67% and the “Lipid Purity” value ([5]; t = 96 h, 37° C.) was 98.10%.
For `CCCCC/C=C\C/C=C\CCCCCCCCN(CCO)CCCCCCCC(=O)OC(CCCCCCCC)CCCCCCCC` [Compound 6, Heptadecan-9-yl 8-((2-hydroxyethyl)((9Z,12Z)-octadeca-9,12-dien-1-yl)amino)octanoate], the “% dose remaining Mouse liver tissue, 24 h” value [2] was 67 ± 9.8%, the “original dose remaining” value ([2]; intravenous) was 67% and the “Lipid Purity” value ([5]; t = 0) was 93.80%. For the same compound, the “Lipid Purity” value ([5]; t = 96 h, 25° C.) was 93.21% and the “Lipid Purity” value ([5]; t = 96 h, 37° C.) was 94.29%.
For `CCCCC/C=C\C/C=C\CCCCCCCCN(CCO)CCCCCCCC(=O)OCCCCCCCCC` [Compound 136, Nonyl 8-((2-hydroxyethyl)((9Z,12Z)-octadeca-9,12-dien-1-yl)amino)octanoate], the “% dose remaining Mouse liver tissue, 24 h” value [2] was 0%, the “Lipid Purity” value ([5]; t = 0) was 91.81% and the “Lipid Purity” value ([5]; t = 96 h, 25° C.) was 93.17%. For the same compound, the “Lipid Purity” value ([5]; t = 96 h, 37° C.) was 93.86%.
With `CCCCCCCCCOC(=O)CCCCCCCN(CCO)CCCCCCCOC(=O)C(CCCCCCCC)CCCCCCCC` [Compound 30, 7-((2-Hydroxyethyl)(8-(nonyloxy)-8-oxooctyl)amino)heptyl 2-octyldecanoate] the “% Lipid Remaining in liver, 48 h” value ([1]; rats, 2 mpk) was less than 0.01%, the “% remaining dose in liver, 48 h” value ([1]; rats, intravenous) was less than 1% and the “hEPO expression Lipid/Compound 18 ratio, 6 hr.” value (hEPO mRNA [4]; 0.5 mpk, 6 hr.) was 1.35. The “hEPO expression Lipid/MC3 ratio, 6 hr.” value (hEPO mRNA [4]; 0.5 mpk, 6 hr.) was 6.53, the “hEPO expression Lipid/Compound 18 ratio, AUC” value (hEPO mRNA [4]; 0.5 mpk, AUC) was 1.27 and the “hEPO expression Lipid/MC3 ratio, AUC” value (hEPO mRNA [4]; 0.5 mpk, AUC) was 6.38. For the same compound, the “hEPO expression” value (hEPO mRNA [3]; rat, 6 h, 2 mpk, i.v.) was 1.63e+07 pg/mL, the “Lipid/MC3 hEPO conc. ratio 0.2 mpk” value (hEPO mRNA [3]; intravenous, 0.2 mpk, 6 hours) was 1.87 and the “Lipid/MC3 hEPO conc. ratio 2 mpk” value (hEPO mRNA [3]; intravenous, 2 mpk, 6 hours) was 1.14.
In the case of `CCCCCCCCC(C)OC(=O)CCCCCCCN(CCO)CCCCCCCC(=O)OC(CCCCCCCC)CCCCCCCC` (stereo not drawn) [Compound 48, decan-2-yl 8-((8-(heptadecan-9-yloxy)-8-oxooctyl)(2-hydroxyethyl)amino)octanoate], the “% lipid remaining in liver after 48 hours” value ([1]; liver, 48 hours) is reported as 11.4%, the “% Lipid Remaining in liver, 48 h” value ([1]; rats, 2 mpk) is reported as 7.22% and the “Novel lipid/MC3 expression ratio” value (hEPO mRNA [4]) is reported as 8.09. For the same compound, the “Lipid/MC3 hEPO expression” value (hEPO mRNA [3]; 0.2 mpk dose to rat) was 5.39, the “Lipid/MC3 hEPO expression” value (hEPO mRNA [3]; 2 mpk dose to rat) was 3.84 and the hEPO expression (hEPO mRNA [3]; [8]) was 4.06e+06 pg/mL. For the same compound, the hEPO expression (hEPO mRNA [3]; [9]) was 3.57e+07 pg/mL, the “Lipid/MC3 hEPO conc. ratio 0.2 mpk” value (hEPO mRNA [3]; intravenous, 0.2 mpk, 6 hours) was 5.39 and the “Lipid/MC3 hEPO conc. ratio 2 mpk” value (hEPO mRNA [3]; intravenous, 2 mpk, 6 hours) was 3.84.
With `CCCCCCCCCOC(=O)CCCCCCCN(CCCCCCCC(=O)OC(CCCCCCCC)CCCCCCCC)CCCNS(C)(=O)=O` [Compound 109, Heptadecan-9-yl 8-((3-(methylsulfonamido)propyl)(8-(nonyloxy)-8-oxooctyl)amino)octanoate] the “Novel lipid/MC3 expression ratio” value (hEPO mRNA [4]) was 6.78.
In the case of `CCCCCCCCC(CC)OC(=O)CCCCCCCN(CCO)CCCCCCCC(=O)OC(CCCCCCCC)CCCCCCCC` (stereo not drawn) [Compound 49, heptadecan-9-yl 8-((2-hydroxyethyl)(8-oxo-8-(undecan-3-yloxy)octyl)amino)octanoate], the “% Lipid Remaining in liver, 48 h” value ([1]; rats, 2 mpk) is reported as 12.6%, the “Novel lipid/MC3 expression ratio” value (hEPO mRNA [4]) is reported as 8.01 and the hEPO expression (hEPO mRNA [3]; [8]) is reported as 3.17e+06 pg/mL. The hEPO expression (hEPO mRNA [3]; [9]) was 3.04e+07 pg/mL, the “Lipid/MC3 hEPO conc. ratio 0.2 mpk” value (hEPO mRNA [3]; intravenous, 0.2 mpk, 6 hours) was 4.13 and the “Lipid/MC3 hEPO conc. ratio 2 mpk” value (hEPO mRNA [3]; intravenous, 2 mpk, 6 hours) was 3.28.

From patent US12263248B2, “Compounds and compositions for intracellular delivery of therapeutic agents” (ModernaTX, Inc., priority 2018, dated 2025)
